Assay results as given in BindingDB's records for doi:10.1021/acs.jmedchem.7b00089 (International Centre For Genetic Engineering and …, 2017).

Molecular target: T1, Heme ligase (Plasmodium falciparum (isolate 3D7), UniProt Q8IL04)
T1 sequence (Q8IL04 whole entry): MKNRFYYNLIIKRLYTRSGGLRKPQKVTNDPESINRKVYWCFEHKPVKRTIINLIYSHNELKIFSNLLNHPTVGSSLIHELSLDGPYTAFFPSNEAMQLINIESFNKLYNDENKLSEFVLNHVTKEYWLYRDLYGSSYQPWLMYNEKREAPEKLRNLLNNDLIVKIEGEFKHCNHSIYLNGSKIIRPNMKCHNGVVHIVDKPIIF
Test: ChEBML_1681013
From the text: Binding affinity to Plasmodium falciparum 3D7 HDP assessed as equilibrium dissociation constant by SPR assay

- Kd: 2960 nM
SMILES: FC(F)(F)c1cccc(N2CCN(C3=Cc4ccccc4CC3)CC2)c1
